According to patent US12685740B2, “Compositions for the elimination of senescent cells” (Universität für Bodenkultur Wien, priority 2018, dated 2026):
Like-named read-outs stand apart in the source and are kept apart here.

Columns and labels:
[1] = tested on: Doxorubicin-induced premature senescent HDF164; test: Alamar blue viability assay, doxorubicin-induced SIPS vs quiescent HDF164 (FIG. 7, 14); assay type: cell-based, human; settings: for EC50: read-out: EC50 for senescent cells
Experimental: (§1) Cells were seeded at a cell density of 2,800 cells/cm^2 one day prior to the treatment. The cells were treated nine times over a period of 11 days with 60-80 μM H2O2 supplemented to the media for one hour followed by a media change. Alternatively, depending on cell type cells were seeded at a cell density of 3,500-7,000 cells/cm^2 one day prior to the treatment and SIPS was induced with 100-200 nM doxorubicin (D1515, Sigma-Aldrich) supplemented to the medium for 6 days. Induction of senescence was verified by SA-β-gal staining, p21 expression, and absence of BrdU incorporation. AnnexinV/PI staining was performed to assure that the treatment was non-lethal and SIPS HDFs were cultured and monitored for over 50 days to assure that the induced growth arrest was permanent (Terlecki-Zaniewicz et al. 2018).
(§2) Alamar blue (DAL1100, Thermo Fisher Scientific) assay was performed according to the manufacturer's instructions. Cells were treated with the respective substances for 9 days with a media change on day 0, 3 and 6. The control was treated with the respective concentration of the solvent (DMSO).
(§3) Premature senescence was induced in adult and foreskin HDFs with doxorubicin, which was supplemented to the growth media for 6 days. Treatment with senolytic substances started 8 days after completion of the SIPS treatment to allow for cells to enter senescence. Quiescent cells were used as control. Growth media was supplemented with senolytic substances for 9 days with media changes every 3 days. All samples, including the control, contained the same concentration of solvent (DMSO). Subsequently, the viability was assessed using an alamar blue assay (Thermo Fisher Scientific).
as §3, with “adult” for “adult and foreskin”, “allow” for “allow for”

[2] = tested on: Doxorubicin-induced premature senescent HDF161; test: Alamar blue viability assay, doxorubicin-induced SIPS vs quiescent HDF161 (FIG. 6); assay type: cell-based, human; settings: for EC50: read-out: EC50 for senescent cells
Experimental: as §1, §2, §3

[3] = tested on: Doxorubicin-induced premature senescent fHDF166; test: Alamar blue viability assay, doxorubicin-induced SIPS vs quiescent fHDF166 (FIG. 8, 15); assay type: cell-based, human; settings: for EC50: read-out: EC50 for senescent cells
Experimental: as §1, §2, §3
as §3, with “In order to test this, premature” for “Premature”, “in” for “in adult and”

[4] = tested on: Doxorubicin-induced premature senescent RPTEC1; test: Alamar blue viability assay, doxorubicin-induced SIPS vs quiescent RPTEC1 (FIG. 13); assay type: cell-based, human
Experimental: as §1, §2

[5] = tested on: intracellular levels of AA of HDF161; test: Quantification of intracellular arachidonic acid by ELISA (FIG. 17b); assay type: cell-based, human; settings: 10 μM MK886 together with 100 μM Diclofenac for 6 hrs, vs solvent (1% DMSO)
Experimental: The cells were harvested by trypsinization, centrifuged at 1000 g and 4° C. for 5 min and washed three times with cold PBS. The Cells were counted using a Vi-CELL XR (Beckman Coulter) automated cell counter and the cell pellets were resuspended in cold PBS to obtain a cell suspension with 2000-5000 cells/μl. Subsequently the cells were lysed by 30 cycles of sonication (30 s on, 30 s off) in a Bioruptor (Diagenode). Cell debris was removed by 10 min centrifugation at 1500 g and 4° C. and the supernatant was analyzed with an ELISA assay (Novus Biologicals; NBP2-66372) according to the manufacturer's instructions.
In order to verify, whether novel senolytics can be identified in an efficient screen measuring the intracellular levels of AA, an ELISA test (Novus Biologicals; NBP2-66372) was used according to the manufacturer's instructions to first, confirm that novel senolytics identified in the examples above indeed lead to an accumulation of intracellular AA, and second, to screen for compounds, which cause an increase of intracellular levels of AA in senescent HDFs.

[6] = tested on: H2O2-induced premature senescent human dermal fibroblasts; test: Alamar blue viability assay, H2O2-induced premature senescent (SIPS) vs quiescent HDFs (FIG. 4); assay type: cell-based; settings: single treatment, 9 days, SIPS vs quiescent (Q) HDFs
Experimental: as §1, with “([…],” for “(D1515,”, “([…]” for “(Terlecki-Zaniewicz”, “2018). Alamar blue (DAL1100, Thermo Fisher Scientific) assay was performed according to the manufacturer's instructions. […] The control was treated with the respective concentration of the solvent (DMSO). Premature senescence was induced in HDF with chronic oxidative stress treatment (9 doses of H2O2 treatment over the period of 11 days). Quiescent cells were used as control. […] Subsequently, the viability was assessed using an alamar blue assay (Thermo Fisher Scientific).” for “2018).”

[7] = tested on: Doxorubicin-induced premature senescent HDF76, HDF161, HDF164; test: Alamar blue viability assay, SIPS vs quiescent HDF, combined data of three donors (FIG. 9, 11); assay type: cell-based, human
Experimental: as §1, §2, §3

[8] = tested on: Doxorubicin-induced premature senescent HLF102; test: Alamar blue viability assay, doxorubicin-induced SIPS vs quiescent HLF102 (FIG. 12); assay type: cell-based, human
Experimental: as §1, §2

[9] = tested on: doxorubicin-induced premature senescent HUVECs; test: Alamar blue viability assay, doxorubicin-induced SIPS vs quiescent HUVECs (FIG. 5); assay type: cell-based, human; settings: single treatment, 9 days, SIPS vs quiescent (Q) HUVECs
Experimental: as §1, §2
as §3, with “HUVECs” for “adult and foreskin HDFs”, “doxorubicin (Sigma-Aldrich),” for “doxorubicin,”, “Scientific) (FIG. 5).” for “Scientific).”

[10] = tested on: Doxorubicin-induced premature senescent HDF76, HDF85, HDF161; test: Rescue of senolytic effect by manipulating cPLA2 activity, viability after 72 hours (FIG. 18); assay type: cell-based
Experimental: Doxorubicin-induced premature senescent HDF76, HDF85, HDF161 (SIPS) and quiescent control cells (Q) were either treated for 72 hours with the combination of 1 μM ACSL4 inhibitor Triacsin C (TrC) and 1 μM ALOXS inhibitor MK886 alone or in addition with either 2.5 μM A23187 (cPLA2 activator) or 12.5 μM ASB14780 (cPLA2 inhibitor).
This was also the case, when the enzymatic activity of the cytosolic phospholipase A2 was reduced by the small molecule inhibitor ASB14780 (Sigma Aldrich, SML1913).

[11] = biological target: cyclooxygenase; settings: Wang et al. 2000; read-out: IC50 of inhibiting cyclooxygenase activity; cited from earlier work
[12] = biological target: COX-1 (Homo sapiens, UniProt P23219); settings: cited from earlier work
Chain of COX-1 (P23219 24-599): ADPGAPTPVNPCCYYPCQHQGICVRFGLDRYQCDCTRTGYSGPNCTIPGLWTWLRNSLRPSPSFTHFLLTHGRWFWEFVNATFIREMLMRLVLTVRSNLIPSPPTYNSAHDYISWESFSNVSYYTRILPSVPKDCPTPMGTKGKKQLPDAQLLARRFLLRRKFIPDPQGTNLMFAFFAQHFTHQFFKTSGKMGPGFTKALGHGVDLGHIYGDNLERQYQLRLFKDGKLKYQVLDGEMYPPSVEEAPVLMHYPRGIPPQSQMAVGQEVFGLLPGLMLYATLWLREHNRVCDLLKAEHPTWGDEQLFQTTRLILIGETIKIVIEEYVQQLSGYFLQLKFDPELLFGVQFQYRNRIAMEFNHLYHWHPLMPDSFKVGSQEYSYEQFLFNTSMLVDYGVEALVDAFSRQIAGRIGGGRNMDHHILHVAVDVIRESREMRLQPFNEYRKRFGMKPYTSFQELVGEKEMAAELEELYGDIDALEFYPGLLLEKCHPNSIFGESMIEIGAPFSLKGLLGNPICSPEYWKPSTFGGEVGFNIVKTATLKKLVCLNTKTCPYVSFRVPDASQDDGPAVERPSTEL

[13] = MK886 combined with 50 μM Diclofenac
[14] = increasing MK886 combined with 50 μM Diclofenac
[15] = increasing MK886 combined with 0.4 mM ASA
[16] = single treatment (DQ: 15 μM Quercetin with increasing Dasatinib)
[17] = 12.5 μM ASB14780 added to 1 μM TrC and 1 μM MK886, 72 hours

For `CC(C)c1ccc2c(c1)c(SC(C)(C)C)c(CC(C)(C)C(=O)O)n2Cc1ccc(Cl)cc1` [MK886], the “fold change between the EC50 of senescent versus quiescent cells” value (“fold change between the EC50” for short) ([1]; MK886 as single treatment) was 1.31 fold, the EC50 ([1]; MK886 as single treatment) was 34.7 µM and the “fold change between the EC50” value [1, 13] was 1.61 fold. For the same compound, the “fold change between the EC50” value ([1]; MK886 combined with 100 μM Diclofenac) was 1.88 fold, the “fold change between the EC50” value ([1]; MK886 combined with 200 μM Diclofenac) was 1.64 fold and the “fold change between the EC50” value ([1]; MK886 combined with 0.4 mM ASA) was 1.46 fold. The “fold change between the EC50” value ([1]; MK886 combined with 0.4 mM ASA and 5 μM Oligomycin A) was 4.51 fold, the EC50 [1, 14] was 17.3 µM and the EC50 ([1]; increasing MK886 combined with 100 μM Diclofenac) was 11.2 µM. It also gave an EC50 ([1]; increasing MK886 combined with 200 μM Diclofenac) of 8.39 µM, an EC50 ([1]; increasing MK886 combined with 0.4 mM ASA and 5 μM Oligomycin A) of 9.9 µM and an EC50 [1, 15] of 30.4 µM. For the same compound, the “fold change between the EC50” value ([2]; MK886 as single treatment) was 1.58 fold, the EC50 ([2]; MK886 as single treatment) was 26.4 µM and the “fold change between the EC50” value ([2]; MK886 combined with 2 μM Celecoxib) was 2.55 fold. For the same compound, the “fold change between the EC50” value [2, 13] was 2.53 fold, the “fold change between the EC50” value ([2]; MK886 combined with 0.4 mM ASA) was 1.95 fold and the EC50 ([2]; increasing MK886 combined with 2 μM Celecoxib) was 17 µM. The EC50 [2, 14] was 9 µM, the EC50 [2, 15] was 18.8 µM and the “fold change between the EC50” value ([3]; MK886 as single treatment) was 1.49 fold. The EC50 ([3]; MK886 as single treatment) was 34 µM, the “fold change between the EC50” value [3, 13] was 2.52 fold and the “fold change between the EC50” value ([3]; MK886 combined with 0.4 mM ASA) was 1.51 fold. The “fold change between the EC50” value ([3]; MK886 combined with 0.4 mM ASA and 2 μM CsA) was 2.81 fold, the EC50 [3, 14] was 12.4 µM and the EC50 ([3]; increasing MK886 combined with 0.4 mM ASA and 2 μM CsA) was 14.9 µM. For the same compound, the EC50 [3, 15] was 29.6 µM, the “EC50 fold change between senescent and quiescent cells” value ([4]; increasing MK886 combined with 0.1 μM TrC and 25 μM Diclofenac) was “around 700 fold” and the “EC50 fold change between senescent and quiescent cells” value ([4]; increasing MK886 combined with 25 μM Diclofenac) was 5.11 fold. The “EC50 fold change between senescent and quiescent cells” value ([4]; single treatment) was 2.66 fold, the “intracellular AA levels” value [5] was “increased” and the senolytic effect [6] was “significant senolytic effect”. For the same compound, the senolytic effect ([7]; increasing MK886 combined with 0.5 μM TrC (dual inhibition of ACSL4 and ALOX5)) was “significant senolytic effect” and the senolytic effect [7, 16] was “not significant”.

In the case of `O=C(O)Cc1ccccc1Nc1c(Cl)cccc1Cl` [Diclofenac], the “EC50 fold change between senescent and quiescent cells” value ([4]; single treatment) is reported as 3.02 fold.

With `CCC/C=C/C/C=C/C=C/C=N/NN=O` [TrC, Triacsin C] the “EC50 fold change between senescent and quiescent cells” value ([8]; TrC as single treatment) was 9.19 fold, the “EC50 fold change between senescent and quiescent cells” value ([8]; increasing TrC combined with 1 μM MK886 and 50 μM Diclofenac) was 13.75 fold and the “EC50 fold change between senescent and quiescent cells” value ([4]; single treatment) was “around 350 fold”. The senolytic effect [7, 16] was “significant senolytic effect”.

For `CC1(C)Cc2c(-c3ccccc3)c(-c3ccc(Cl)cc3)c(CC(=O)O)n2C1` [Licofelone], the senolytic effect [9] was “significant senolytic effect”.

With `NC(CO)(CO)CO.O=C(O)CCc1ccc2c(c1)c(CCc1ccccc1)cn2-c1ccc(Oc2ccccc2)cc1` [ASB14780] the “effect on the cytotoxic effect of TrC and MK886 on senescent cells” value [10, 17] was “reduced the cytotoxic effect” and the “viability of quiescent cells” value [10, 17] was “only affected to a minor extent”.

In the case of `CC1(C)CCC(c2ccc(Cl)cc2)=C(CN2CCN(c3ccc(C(=O)NS(=O)(=O)c4ccc(N[C@H](CCN5CCOCC5)CSc5ccccc5)c(S(=O)(=O)C(F)(F)F)c4)cc3)CC2)C1` [Navitoclax], the senolytic effect [9] is reported as “significant senolytic effect” and the senolytic effect [7, 16] is reported as “no senolytic effect”.

In the case of `CNc1ccc2oc(C[C@H]3O[C@@]4(CC[C@H]3C)O[C@H]([C@H](C)C(=O)c3ccc[nH]3)[C@H](C)C[C@H]4C)nc2c1C(=O)O` [A23187], the “effect on the senolytic effect of 1 μM TrC and 1 μM MK886” value ([10]; 2.5 μM A23187 added, 72 hours) is reported as “abolishing the senolytic effect”.

For `O=c1c(O)c(-c2ccc(O)c(O)c2)oc2cc(O)cc(O)c12` [Quercetin], the IC50 [11] is given as ≥ 100 µM.

For `CC(=O)Oc1ccccc1C(=O)O` [ASA, acetylsalicylic acid], the senolytic effect [9] was “significant senolytic effect” and the senolytic effect [6] was “significant senolytic effect”.

For `CC(C)=CCC[C@]1(C)[C@@H](CC=C(C)C)C[C@@]2(CC=C(C)C)C(=O)[C@]1(C(=O)C(C)C)C(=O)C(CC=C(C)C)=C2O` [hyperforin], the “COX-1 inhibition relative to aspirin” value [12] is given as 3-18 times.
